How the values were obtained:
[1] = target: T1, PTPN2 (i.e., TC-PTP) (Homo sapiens, UniProt P17706); assay: Phosphatase activity assay (DiFMUP substrate), PTPN2; type: biochemical; settings: compounds binned ≤1 uM or >1 uM
T1 sequence (P17706 1-415): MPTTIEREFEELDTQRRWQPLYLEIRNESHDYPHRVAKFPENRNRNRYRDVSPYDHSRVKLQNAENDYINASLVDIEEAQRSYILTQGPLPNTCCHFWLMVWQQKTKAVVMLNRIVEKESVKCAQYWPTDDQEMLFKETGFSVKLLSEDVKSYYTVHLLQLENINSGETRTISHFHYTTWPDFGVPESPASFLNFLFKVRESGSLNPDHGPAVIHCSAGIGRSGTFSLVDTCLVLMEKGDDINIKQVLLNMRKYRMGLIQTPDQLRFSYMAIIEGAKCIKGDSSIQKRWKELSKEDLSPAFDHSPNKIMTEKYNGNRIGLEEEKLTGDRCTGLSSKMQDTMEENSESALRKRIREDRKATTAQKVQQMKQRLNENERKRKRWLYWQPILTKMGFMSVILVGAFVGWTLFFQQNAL
Procedure, shortened: (§1)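 Read-out is continuous fluorescence of DiFMU (360 nm excitation, 450 nm emission) over about 15-30 minutes, with DiFMUP substrate at the enzyme's independently determined Km (PTPN2 approx. 45 μM final). Buffer: 50 mM HEPES pH 7.5, 150 mM NaCl, 0.5 mM EDTA, 1 mM DTT, 0.001% Tween-20, room temperature; initial rates versus 10-point dilution fitted for IC50, at least duplicate.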

[2] = target: T2, PTPN1 (i.e., PTP1B) (Homo sapiens, UniProt P18031); assay: Phosphatase activity assay (DiFMUP substrate), PTP1B; type: biochemical; settings: compounds binned ≤1 uM or >1 uM
T2 sequence (P18031 1-435): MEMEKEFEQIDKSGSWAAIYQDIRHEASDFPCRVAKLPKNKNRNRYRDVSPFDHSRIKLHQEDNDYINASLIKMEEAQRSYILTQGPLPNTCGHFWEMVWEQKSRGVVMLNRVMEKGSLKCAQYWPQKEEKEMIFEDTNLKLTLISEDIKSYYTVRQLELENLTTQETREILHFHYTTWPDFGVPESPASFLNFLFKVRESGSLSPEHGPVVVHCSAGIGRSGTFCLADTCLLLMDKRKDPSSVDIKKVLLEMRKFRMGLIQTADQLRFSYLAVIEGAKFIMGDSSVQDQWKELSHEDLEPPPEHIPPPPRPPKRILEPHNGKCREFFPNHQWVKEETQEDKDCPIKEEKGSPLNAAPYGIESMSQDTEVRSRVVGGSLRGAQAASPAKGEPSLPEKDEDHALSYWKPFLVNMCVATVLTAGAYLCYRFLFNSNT
Procedure, shortened: as §1

| SMILES | IC50 [1] | IC50 [2] |
| --- | --- | --- |
| O=C1CN(c2c(O)ccc(-c3cn(C4CC4)[nH]c3=O)c2F)S(=O)(=O)N1 [Compound 245, 5-(3-(1-cyclopropyl-3-oxo-2,3-dihydro-1H-pyrazol-4-yl)-2-fluoro-6-hydroxyphenyl)-1,2,5-thiadiazolidin-3-one 1,1-dioxide] | ≤ 1000 nM | ≤ 1000 nM |
| N#CCn1nc(-c2ccc(O)c(N3CC(=O)NS3(=O)=O)c2F)cc1C1CC1 [Compound 349, 2-(5-cyclopropyl-3-(3-(1,1-dioxido-4-oxo-1,2,5-thiadiazolidin-2-yl)-2-fluoro-4-hydroxyphenyl)-1H-pyrazol-1-yl)acetonitrile] | ≤ 1000 nM | ≤ 1000 nM |
| O=C1CN(c2c(O)ccc(-c3ccc(NS(=O)(=O)C4CC4)nc3)c2F)S(=O)(=O)N1 [Compound 320, N-(5-(3-(1,1-dioxido-4-oxo-1,2,5-thiadiazolidin-2-yl)-2-fluoro-4-hydroxyphenyl)pyridin-2-yl)cyclopropanesulfonamide] | ≤ 1000 nM | ≤ 1000 nM |
| O=C1CN(c2c(O)ccc(C3=CC(CCc4ccccc4)NC3)c2F)S(=O)(=O)N1 (stereo not shown) [Compound 473, 5-(2-fluoro-6-hydroxy-3-(5-phenethyl-2,5-dihydro-1H-pyrrol-3-yl)phenyl)-1,2,5-thiadiazolidin-3-one 1,1-dioxide] | ≤ 1000 nM | ≤ 1000 nM |
| O=C1CN(c2c(O)ccc(-c3cc(N4CCCC4)n[nH]3)c2F)S(=O)(=O)N1 [Compound 343, 5-(2-fluoro-6-hydroxy-3-(3-(pyrrolidin-1-yl)-1H-pyrazol-5-yl)phenyl)-1,2,5-thiadiazolidin-3-one 1,1-dioxide] | ≤ 1000 nM | ≤ 1000 nM |
| O=C1CN(c2c(O)ccc(C3=CCN(C4CC4)CC3)c2F)S(=O)(=O)N1 [Compound 316, 5-(3-(1-cyclopropyl-1,2,3,6-tetrahydropyridin-4-yl)-2-fluoro-6-hydroxyphenyl)-1,2,5-thiadiazolidin-3-one 1,1-dioxide] | ≤ 1000 nM | ≤ 1000 nM |
| O=C1CN(c2c(O)ccc(-c3cnn(CCc4ccccc4)c3)c2F)S(=O)(=O)N1 [Compound 207, 5-(2-fluoro-6-hydroxy-3-(1-phenethyl-1H-pyrazol-4-yl)phenyl)-1,2,5-thiadiazolidin-3-one 1,1-dioxide] | ≤ 1000 nM | ≤ 1000 nM |
| CC(C)CNc1cccc(-c2ccc(O)c(N3CC(=O)NS3(=O)=O)c2F)c1 [Compound 137, 5-(2-fluoro-4-hydroxy-3′-(isobutylamino)-[1,1′-biphenyl]-3-yl)-1,2,5-thiadiazolidin-3-one 1,1-dioxide] | ≤ 1000 nM | ≤ 1000 nM |
| CC(C)CCn1cc(-c2ccc(O)c(N3CC(=O)NS3(=O)=O)c2F)cn1 [Compound 203, 5-(2-fluoro-6-hydroxy-3-(1-isopentyl-1H-pyrazol-4-yl)phenyl)-1,2,5-thiadiazolidin-3-one 1,1-dioxide] | ≤ 1000 nM | ≤ 1000 nM |
| CN1CCC(Nc2cccc(-c3ccc(O)c(N4CC(=O)NS4(=O)=O)c3F)c2)CC1 [Compound 225, 5-(2-fluoro-4-hydroxy-3′-((1-methylpiperidin-4-yl)amino)-[1,1′-biphenyl]-3-yl)-1,2,5-thiadiazolidin-3-one 1,1-dioxide] | ≤ 1000 nM | ≤ 1000 nM |
| O=C1CN(c2c(O)ccc(-c3cc(C4CC4(F)F)nn3C(F)F)c2F)S(=O)(=O)N1 (stereo not shown) [Compound 538, 5-(3-(3-(2,2-difluorocyclopropyl)-1-(difluoromethyl)-1H-pyrazol-5-yl)-2-fluoro-6-hydroxyphenyl)-1,2,5-thiadiazolidin-3-one 1,1-dioxide] | ≤ 1000 nM | ≤ 1000 nM |
| O=C1CN(c2c(O)ccc(-c3cc(C4CC4(F)F)n(CC(F)F)n3)c2F)S(=O)(=O)N1 (stereo not shown) [Compound 508, 5-(3-(5-(2,2-difluorocyclopropyl)-1-(2,2-difluoroethyl)-1H-pyrazol-3-yl)-2-fluoro-6-hydroxyphenyl)-1,2,5-thiadiazolidin-3-one 1,1-dioxide] | ≤ 1000 nM | ≤ 1000 nM |
| O=C1CN(c2c(O)ccc(-c3cn(-c4cccc(F)c4)cn3)c2F)S(=O)(=O)N1 [Compound 181, 5-(2-fluoro-3-(1-(3-fluorophenyl)-1H-imidazol-4-yl)-6-hydroxyphenyl)-1,2,5-thiadiazolidin-3-one 1,1-dioxide] | ≤ 1000 nM | ≤ 1000 nM |
| CN1CC2(C1)CN(c1cc(-c3ccc(O)c(N4CC(=O)NS4(=O)=O)c3F)[nH]n1)C2 [Compound 252, 5-(2-fluoro-6-hydroxy-3-(3-(6-methyl-2,6-diazaspiro[3.3]heptan-2-yl)-1H-pyrazol-5-yl)phenyl)-1,2,5-thiadiazolidin-3-one 1,1-dioxide] | ≤ 1000 nM | ≤ 1000 nM |
| O=C1CN(c2c(O)ccc(-c3cc(-c4ccccc4)n[nH]3)c2F)S(=O)(=O)N1 [Compound 124, 5-(2-fluoro-6-hydroxy-3-(3-phenyl-1H-pyrazol-5-yl)phenyl)-1,2,5-thiadiazolidin-3-one 1,1-dioxide] | ≤ 1000 nM | ≤ 1000 nM |
| COCCS(=O)(=O)Nc1ccc(-c2ccc(O)c(N3CC(=O)NS3(=O)=O)c2F)cc1 [Compound 443, N-(3′-(1,1-dioxido-4-oxo-1,2,5-thiadiazolidin-2-yl)-2′-fluoro-4′-hydroxy-[1,1′-biphenyl]-4-yl)-2-methoxyethane-1-sulfonamide] | ≤ 1000 nM | ≤ 1000 nM |
| CC1C=C(c2ccc(O)c(N3CC(=O)NS3(=O)=O)c2F)CN1 (stereo not shown) [Compound 282, 5-(2-fluoro-6-hydroxy-3-(5-methyl-2,5-dihydro-1H-pyrrol-3-yl)phenyl)-1,2,5-thiadiazolidin-3-one 1,1-dioxide] | ≤ 1000 nM | ≤ 1000 nM |
| O=C1CN(c2c(O)ccc(-c3cnn(CC(F)(F)F)c3)c2F)S(=O)(=O)N1 [Compound 366, 5-(2-fluoro-6-hydroxy-3-(1-(2,2,2-trifluoroethyl)-1H-pyrazol-4-yl)phenyl)-1,2,5-thiadiazolidin-3-one 1,1-dioxide] | ≤ 1000 nM | ≤ 1000 nM |
| N#Cc1ccccc1-n1cnc(-c2ccc(O)c(N3CC(=O)NS3(=O)=O)c2F)c1 [Compound 298, 2-(4-(3-(1,1-dioxido-4-oxo-1,2,5-thiadiazolidin-2-yl)-2-fluoro-4-hydroxyphenyl)-1H-imidazol-1-yl)benzonitrile] | ≤ 1000 nM | ≤ 1000 nM |
| O=C1CN(c2c(O)ccc(-c3cn(Cc4ccccc4)nn3)c2F)S(=O)(=O)N1 [Compound 205, 5-(3-(1-benzyl-1H-1,2,3-triazol-4-yl)-2-fluoro-6-hydroxyphenyl)-1,2,5-thiadiazolidin-3-one 1,1-dioxide] | ≤ 1000 nM | ≤ 1000 nM |
| O=C1CN(c2c(O)ccc(-c3cc(C4CCC4)n[nH]3)c2F)S(=O)(=O)N1 [Compound 281, 5-(3-(3-cyclobutyl-1H-pyrazol-5-yl)-2-fluoro-6-hydroxyphenyl)-1,2,5-thiadiazolidin-3-one 1,1-dioxide] | ≤ 1000 nM | ≤ 1000 nM |
| O=C1CN(c2c(O)ccc(-c3ccc(NS(=O)(=O)C4CC4)cc3)c2F)S(=O)(=O)N1 [Compound 292, N-(3′-(1,1-dioxido-4-oxo-1,2,5-thiadiazolidin-2-yl)-2′-fluoro-4′-hydroxy-[1,1′-biphenyl]-4-yl)cyclopropanesulfonamide] | ≤ 1000 nM | ≤ 1000 nM |
| O=C1CN(c2c(O)ccc(-c3cc(N4CCCOCC4)n[nH]3)c2F)S(=O)(=O)N1 [Compound 344, 5-(3-(3-(1,4-oxazepan-4-yl)-1H-pyrazol-5-yl)-2-fluoro-6-hydroxyphenyl)-1,2,5-thiadiazolidin-3-one 1,1-dioxide] | ≤ 1000 nM | ≤ 1000 nM |
| Cn1cc(-c2ccc(O)c(N3CC(=O)NS3(=O)=O)c2F)nc1N [Compound 503, 5-(3-(2-amino-1-methyl-1H-imidazol-4-yl)-2-fluoro-6-hydroxyphenyl)-1,2,5-thiadiazolidin-3-one 1,1-dioxide] | ≤ 1000 nM | ≤ 1000 nM |
| O=C1CN(c2c(O)ccc(-c3cn(-c4ccc(C(F)(F)F)cc4)cn3)c2F)S(=O)(=O)N1 [Compound 318, 5-(2-fluoro-6-hydroxy-3-(1-(4-(trifluoromethyl)phenyl)-1H-imidazol-4-yl)phenyl)-1,2,5-thiadiazolidin-3-one 1,1-dioxide] | ≤ 1000 nM | ≤ 1000 nM |
| Cc1ncc(-c2ccc(O)c(N3CC(=O)NS3(=O)=O)c2F)[nH]1 [Compound 263, 5-(2-fluoro-6-hydroxy-3-(2-methyl-1H-imidazol-5-yl)phenyl)-1,2,5-thiadiazolidin-3-one 1,1-dioxide] | ≤ 1000 nM | ≤ 1000 nM |

— patent US20240398828A1, “HETERO-ATOM CONTAINING COMPOUNDS AND USES THEREOF” (Kumquat Biosciences Inc., priority 2021, published 2024)
